Experimental data taken from paper PMC10228259 (Nature, 2023).
Like-named read-outs stand apart in the source and are kept apart here.

How the values were obtained:
[1] = molecular target: T1, chemotactile receptor for terpenes 1 (CRT1) (Octopus bimaculoides, UniProt A0A0L8FVQ9); experiment: patch clamp dose-response in HEK […] cells expressing CRT1; type: cell-based
T1 sequence (A0A0L8FVQ9 21-399): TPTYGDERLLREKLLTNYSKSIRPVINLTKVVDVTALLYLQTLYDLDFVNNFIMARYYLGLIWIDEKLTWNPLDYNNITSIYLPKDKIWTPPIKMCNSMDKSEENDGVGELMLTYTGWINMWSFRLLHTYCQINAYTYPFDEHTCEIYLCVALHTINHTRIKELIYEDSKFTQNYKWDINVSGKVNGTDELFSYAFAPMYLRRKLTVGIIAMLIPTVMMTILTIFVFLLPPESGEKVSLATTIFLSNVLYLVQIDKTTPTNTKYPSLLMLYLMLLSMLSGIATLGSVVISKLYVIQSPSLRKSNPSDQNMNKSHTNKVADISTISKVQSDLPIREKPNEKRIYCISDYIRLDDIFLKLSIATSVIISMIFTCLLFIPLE

[2] = molecular target: T1, chemotactile receptor for terpenes 1 (CRT1); experiment: as above; type: cell-based; remark: listed apart in the source
[3] = molecular target: T2, chemotactile receptor for terpenes 1 (CRT1, previously CR518) (Octopus bimaculoides, UniProt A0A0L8FVQ9); experiment: cryo-EM structure at […] Å; type: cell-based
T2 sequence (A0A0L8FVQ9 21-399): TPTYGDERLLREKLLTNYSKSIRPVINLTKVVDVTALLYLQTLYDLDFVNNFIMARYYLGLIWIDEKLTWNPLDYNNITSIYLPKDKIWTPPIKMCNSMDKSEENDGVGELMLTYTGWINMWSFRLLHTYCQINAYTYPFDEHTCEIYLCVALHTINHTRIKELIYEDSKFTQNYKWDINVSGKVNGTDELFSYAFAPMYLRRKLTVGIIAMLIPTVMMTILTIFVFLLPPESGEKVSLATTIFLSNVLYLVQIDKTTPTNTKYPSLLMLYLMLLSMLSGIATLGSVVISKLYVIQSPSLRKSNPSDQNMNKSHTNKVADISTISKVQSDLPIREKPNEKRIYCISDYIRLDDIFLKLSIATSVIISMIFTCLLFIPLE

[4] = molecular target: the molecule itself; experiment: cryo-EM structure

Molecule: C[C@H]1CCCC(=O)CCC/C=C/c2cc(O)cc(O)c2C(=O)O1 [zearalenone]
- EC50 [1]: 4.8 µM

Molecule: C=C(C)[C@@H]1CCC2=CC(=O)C[C@@H](C)[C@]2(C)C1 [nootkatone]
- EC50 [2]: 16.1 µM

Molecule: C[C@@H]1CC[C@@]2(OC1)O[C@H]1C[C@H]3[C@@H]4CC=C5C[C@@H](OCCC(CO[C@@H]6O[C@H](CO)[C@@H](O[C@H]7O[C@H](CO)[C@@H](O)[C@H](O)[C@H]7O)[C@H](O)[C@H]6O)CO[C@@H]6O[C@H](CO)[C@@H](O[C@H]7O[C@H](CO)[C@@H](O)[C@H](O)[C@H]7O)[C@H](O)[C@H]6O)CC[C@]5(C)[C@H]4CC[C@]3(C)[C@H]1[C@@H]2C [GDN, glyco-diosgenin]
- EC50 [3]: 0.125 µM

B1: chemotactile receptor for terpenes 1 (CRT1) (receptor, Octopus bimaculoides, UniProt A0A0L8FVQ9 21-399, looked up)
chain: TPTYGDERLLREKLLTNYSKSIRPVINLTKVVDVTALLYLQTLYDLDFVNNFIMARYYLGLIWIDEKLTWNPLDYNNITSIYLPKDKIWTPPIKMCNSMDKSEENDGVGELMLTYTGWINMWSFRLLHTYCQINAYTYPFDEHTCEIYLCVALHTINHTRIKELIYEDSKFTQNYKWDINVSGKVNGTDELFSYAFAPMYLRRKLTVGIIAMLIPTVMMTILTIFVFLLPPESGEKVSLATTIFLSNVLYLVQIDKTTPTNTKYPSLLMLYLMLLSMLSGIATLGSVVISKLYVIQSPSLRKSNPSDQNMNKSHTNKVADISTISKVQSDLPIREKPNEKRIYCISDYIRLDDIFLKLSIATSVIISMIFTCLLFIPLE
modifications: N-linked glycans
- stoichiometry N [4]: 5
